{
  "source": "patent US12285392B2",
  "about": "“Method for modulating metabolism” (Brightseed, Inc., priority 2018, dated 2025)",
  "key": {"[1]": {"assay": "Hepatic microsome stability assay, mouse", "type": "in vitro ADME", "settings": "mouse microsomes", "protocol": "Hepatic Microsome Assay. Hepatic microsomes stability assays were performed in accordance with known methods (Peddibhotla, et al. (2013) ACS Med. Chem. Lett. 4:846-851). Briefly, 3 μL of 25 μM compound solution in acetonitrile were incubated with 123 μL of mouse, human or rat liver microsomes (Xenotech, Kansas City, Kans.). […] The microsomal concentrations used were 1.0 mg/mL. Compounds were incubated in microsomes for 0, 5, 15, 30 and 60 minutes. The reactions were stopped by the addition of ice cold ACN and the reaction mixtures were centrifuged at 10,000 g for 10 minutes before the supernatant was removed for analysis. A 10 μL portion of the resulting extract was injected on a Thermo HPLC system equipped with PAL CTC plate sampler (96-well plate), Dionex Ultimate 3000 binary pump (flow rate at 0.600 mL/min), Dionex Ultimate 3000 thermostatted column compartment (temperature at 40° C.), Thermo Endura Mass Spectrometer (ESI source), using a Thermo Scientific Accucore C18 (2.6 μM, 2.1×50 mm) column. A gradient was run starting at 95% H2O (0.1% formic acid) and 5% ACN (0.1% formic acid) during the first 0.5 min, then under gradient condition of 5-100% ACN (0.1% formic acid) from minute 0.5 to 3.5, finishing at 95% H2O (0.1% formic acid) and 5% ACN (0.1% formic acid) over 0.5 min, with another 1 min at 95:5 to re-equilibrate."}, "[2]": {"test_system": "diet-induced obese mice", "assay": "Efficacy and tolerability in diet-induced obese mice", "type": "in vivo", "protocol": "Alkaline Phosphatase (ALP) Quantitation. Increased levels of ALP in blood are considered indicative of liver function abnormalities. Thus, ALP was assayed in accordance with known methods (Kiselyuk, et al. (2012) Chem. Biol. 19(7):806-818). Briefly, prior to sacrifice, blood was drawn and analyzed using a Vet Scan blood analyzer, measuring alkaline phosphatase (ALP, IU/L), alanine aminotransferase (ALT, IU/L), gamma glutamyl transferase (GGT, IU/L), bile acids (BA, μmol/L), total bilirubin (TBIL, mg/dL), albumin (ALB, g/dL), blood urea nitrogen (BUN, mg/dL), and cholesterol (CHOL, mg/dL).\nTriglyceride (TG) Quantitation. TG quantity was assayed using a Triglyceride Colorimetric Assay Kit (Cayman Chemicals; Ann Arbor, MI) according to the manufacturer's instructions.\nLipid Droplet Size Analysis. All slides were scanned at a magnification of 20× using the Aperio Scanscope FL system (Aperio Technologies Inc.; Vista, CA). The appropriate dyes were assigned and illumination levels were calibrated using a preset procedure; the parameters were saved and applied to all slides. The acquired digital images represented whole tissue sections. Sections were evaluated for image quality. All acquired images were subsequently placed in dedicated project folders, and stored on a designated local server. Selected areas of the slides were selected using Aperio Imagescope (version 12 Aperio Technologies Inc.). For analysis, slides were viewed, whole tissue areas were selected and analyzed using the web-based Image Scope viewer. Slides were quantified using the ‘Color Deconvolution v9’ algorithm for oil redo staining (version 11 Aperio Technologies Inc.). The algorithm was optimized using a preset procedure to maximize the strong red color positive oil droplets signal to noise ratio and the subsequent macro was saved and applied to all slides.\nHNF4α Immunostaining in Organ Samples. Samples were harvested from mice, fixed in 4% paraformaldehyde and embedded in paraffin or O.C.T. freezing media (Sakura Finetek; Torrance, CA) Slides of 5 μm thickness were washed four times with PBS and treated with 0.3% Triton™ in PBS for 10 minutes. Antigen retrieval was carried out with CitriSolv™ (Fisher Scientific; Waltham, MA) for 10 minutes in sub-boiling temperature. After washing with PBS for 10 minutes, slides were incubated in blocking solution with 5% normal donkey serum (Jackson Immuno Research; West Grove, PA) for 60 minutes at room temperature. Cells were fixed in 4% paraformaldehyde for 15 minutes on 4° C. and washed with PBS, treated with 0.3% Triton™ in PBS for 10 minutes and blocked as previously described for slide samples.\nPrimary Antibodies. HNF4α antibodies were used (#sc-6556, Santa Cruz Biotechnology; Santa Cruz, CA and #3113, Cell Signaling Technology; Danvers, MA). For fluorescent imaging, samples were incubated with ALEXA FLOUR® 488 green-fluorescent dye or Rhodamine labeled anti-mouse, rabbit or goat and nuclei were counterstained with DAPI (4′,6-diamidino-2-phenylindole) Controls using secondary antibodies alone were used to ensure specificity of immunostaining. Fluorescently labeled sections were analyzed with a conventional inverted microscope (Olympus, PlanFl 40×/0.60) or with a confocal microscope equipped with a krypton/argon laser.\nThe experiments were performed to establish feeding and treatment regimen, dosing and administration regimens, as well as to provide evidence of beneficial effects of N-trans-caffeoyltyramine on glucose and lipid homeostasis, hepatic steatosis, β-cell function and hepatocyte function. Twelve mice (10 weeks old) were fed a high-fat diet for four weeks to induce obesity. After four weeks, and while on the high-fat diet, six mice were administered 5% DMSO or 120 mg/kg N-trans-caffeoyltyramine twice a day intraperitoneally for 14 days. One hour after the last i.p. injection of DMSO or N-trans-caffeoyl tyramine, the animals were sacrificed and blood and organ (liver, kidney, gut and pancreas) samples were collected. […]"}, "[3]": {"test_system": "HNF4α mRNA", "assay": "HNF4α mRNA levels by quantitative PCR", "type": "cell-based", "settings": "FIG. 3", "protocol": "Expression of Insulin and HNF4α. RNA was purified using a RNEASY® chromatographic separation and isolation kits (Qiagen), and converted to cDNA using the gScript™ cDNA SuperMix (Quanta Biosciences). Q-PCR was conducted with cDNA corresponding to 2 μg of RNA using an Opticon Real-Time System (MJ Research) and QPCR SuperMix (BioPioneer). See All mRNA values were normalized to 18S rRNA values and are expressed as fold changes over vehicle-treated control."}},
  "data": [
    {"smiles": "O=C(/C=C/c1ccc(O)c(O)c1)NCCc1ccc(O)cc1", "note": "[N-trans-caffeoyltyramine]", "values": [
      {"measurement": "% Remaining", "setting": "[1]; 1 μM", "value": 0.4, "unit": "%"},
      {"measurement": "% Remaining", "setting": "[1]; 10 μM", "value": 0.3, "unit": "%"},
      {"measurement": "Lipid accumulation in the liver", "setting": "[2]; 120 mg/kg twice a day i.p. for 14 days", "value": "decreased"},
      {"measurement": "Weight loss, sickness or abnormal behaviors compared to control", "setting": "[2]; 120 mg/kg twice a day i.p. for 14 days, high-fat diet mice", "value": "None of the treated mice exhibited weight loss, sickness, or abnormal behaviors"},
      {"measurement": "Lipid droplet sizes in the liver", "setting": "[2]; 120 mg/kg twice a day i.p. for 14 days, FIG. 8", "value": "reduced"},
      {"measurement": "HNF4α expression in the liver", "setting": "[2]; 120 mg/kg twice a day i.p. for 14 days, P=0.0042, FIG. 7", "value": "significantly increased"},
      {"measurement": "HNF4α expression in intestines", "setting": "[2]; FIG. 12", "value": "increased"},
      {"measurement": "Levels of alkaline phosphatase", "setting": "[2]; blood, 120 mg/kg twice a day i.p. for 14 days, FIG. 9", "value": "significantly reduced"},
      {"measurement": "HNF4α expression in the pancreas", "setting": "[2]; compared to DMSO control mice, FIG. 11", "value": "increased"},
      {"measurement": "Levels of triglycerides", "setting": "[2]; liver, 120 mg/kg twice a day i.p. for 14 days, FIG. 10", "value": "significantly reduced"},
      {"measurement": "HNF4α gene expression", "setting": "[3]", "value": "upregulated"}
    ]}
  ]
}
